# Experimental data published in patent publication US11440923B2, “Substituted macrocyclic indole derivatives” (Bayer Aktiengesellschaft, priority 2017, dated 2022).
# pIC50: −log10 of the molar value. Structures can show the parent of a compound that is named as a salt. Where two headings read alike, the source gives them in different places.
# What was measured:
# SUDHL10 cells = assay: Induction of cytotoxicity in SUDHL10 cells (Assay 6); format: cell-based
# Method in brief: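 SUDHL5 and SUDHL10 cells plated and held overnight at 37° C, then incubated 5 h at 37° C with compound. Viability measured by CellTiter-Glo luminescence after 15 min shaking at room temperature. Cell-free medium wells served as control.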
# AMO-1 cells = assay: Antiproliferation assay AMO-1 (Assay 7); format: cell-based
# Method in brief: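 72 h antiproliferation, 37 °C, CellTiter-Glo luminescence. Day 0 plate = CI; DMSO = C0; IC50 calculated from these.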
# [1] = 5 h, CellTiter-Glo; read-out: Cytotox SUDHL10 IC50 (median)
# [2] = read-out: Antiproli AMO-1 IC50 median; 72 h, CellTiter-Glo
# [3] = Homo sapiens, SU-DHL10, 5 h, 5 h, CellTiter-Glo; read-out: Cytotox SUDHL10 IC50 (median)
# [4] = Homo sapiens, AMO1, 72 h, 72 h, CellTiter-Glo; read-out: Antiproli AMO-1 IC50 median
# [5] = read-out: Cytotox SUDHL10 IC50 (median); 5 h, CellTiter-Glo
Structure (SMILES),pIC50 (SUDHL10 cells; [1]),pIC50 (AMO-1 cells; [2]),pIC50 (SUDHL10 cells; [3]),also measured
"CCc1c2c(nn1C)C(CC(C)(C)O)OCCCCn1c(C(=O)O)c(CCCOc3cccc4cc(F)ccc34)c3ccc(Cl)c-2c31 (single isomer, unassigned; enantiomer 21) [Example 54, (−)-4-chloro-3-ethyl-7-{3-[(6-fluoronaphthalen-1-yl)oxy]propyl}-15-(2-hydroxy-2-methylpropyl)-2-methyl-2,10,11,12,13,15-hexahydropyrazolo[4′,3′:9,10][1,6]oxazacycloundecino[8,7,6-hi]indole-8-carboxylic Acid—N-ethylethanamine Salt (Enantiomer 21]",4.77,4.56,–,–
"Cc1c2c(nn1C)C(CCO)OCCCCn1c(C(=O)O)c(CCCOc3cccc4ccccc34)c3ccc(Cl)c-2c31 (single isomer, unassigned; enantiomer 2) [Example 32, (−)-4-chloro-15-(2-hydroxyethyl)-2,3-dimethyl-7-{3-[(naphthalen-1-yl)oxy]propyl}-2,10,11,12,13,15-hexahydropyrazolo[4′,3′:9,10][1,6]oxazacycloundecino[8,7,6-hi]indole-8-carboxylic Acid (Enantiomer 2)]",< 4.48,–,–,"pIC50 (AMO-1 cells; 72 h, CellTiter-Glo; read-out: Antiproli AMO-1 IC50 median): 4.59"
"CCc1c2c(nn1C)C(CCOC)OCCCCn1c(C(=O)O)c(CCCOc3cccc4cc(F)ccc34)c3ccc(Cl)c-2c31 (single isomer, unassigned; enantiomer 2) [Example 43, (−)-4-chloro-3-ethyl-7-{3-[(6-fluoronaphthalen-1-yl)oxy]propyl}-15-(2-methoxyethyl)-2-methyl-2,10,11,12,13,15-hexahydropyrazolo[4′,3′:9,10][1,6]oxazacycloundecino[8,7,6-hi]indole-8-carboxylic Acid—N-ethylethanamine Salt (Enantiomer 2)]",4.72,4.70,–,–
"CCc1c2c(nn1C)C(CCN1CCN(C)CC1)OCCCCn1c(C(=O)O)c(CCCOc3cccc4cc(F)ccc34)c3ccc(Cl)c-2c31 (racemic) [Example 68, 4-chloro-3-ethyl-7-{3-[(6-fluoronaphthalen-1-yl)oxy]propyl}-2-methyl-(15-rac)-[2-(4-methylpiperazin-1-yl)ethyl]-2,10,11,12,13,15-hexahydropyrazolo[4′,3′:9,10][1,6]oxazacycloundecino[8,7,6-hi]indole-8-carboxylic Acid—N-ethylethanamine Salt (Mixture 1 of Stereoisomers)]",6.82,6.11,–,–
"CCC1OCCCCn2c(C(=O)O)c(CCCOc3cccc4ccccc34)c3ccc(Cl)c(c32)-c2c1nn(C)c2C (single isomer, unassigned; enantiomer 2) [Example 30, (−)-4-chloro-15-ethyl-2,3-dimethyl-7-{3-[(naphthalen-1-yl)oxy]propyl}-2,10,11,12,13,15-hexahydropyrazolo[4′,3′:9,10][1,6]oxazacycloundecino[8,7,6-hi]indole-8-carboxylic Acid—N-ethylethanamine Salt (Enantiomer 2)]",< 4.48,4.50,–,–
"CCc1c2c(nn1C)C(CCN1CCN(C)CC1)OCCCCn1c(C(=O)O)c(CCCOc3cccc4cc(F)ccc34)c3ccc(Cl)c-2c31 (racemic) [Example 71, (rac)-4-chloro-3-ethyl-7-{3-[(6-fluoronaphthalen-1-yl)oxy]propyl}-2-methyl-(15-rac)-[2-(4-methylpiperazin-1-yl)ethyl]-2,10,11,12,13,15-hexahydropyrazolo[4′,3′:9,10][1,6]oxazacycloundecino[8,7,6-hi]indole-8-carboxylic Acid—N-ethylethanamine Salt (Mixture 2 Od Stereoisomers)]",7.44,6.68,–,–
"Cc1c2c(nn1C)C(C1CC1)OCCCCn1c(C(=O)O)c(CCCOc3cccc4ccccc34)c3ccc(Cl)c-2c31 (single isomer, unassigned; enantiomer 2) [Example 36, (−)-4-chloro-15-cyclopropyl-2,3-dimethyl-7-{3-[(naphthalen-1-yl)oxy]propyl}-2,10,11,12,13,15-hexahydropyrazolo[4′,3′:9,10][1,6]oxazacycloundecino[8,7,6-hi]indole-8-carboxylic Acid N-ethylethanamine Salt (Enantiomer 2)]",4.57,4.80,–,–
"Cc1c2c(nn1C)C(CCN1CCOCC1)OCCCCn1c(C(=O)O)c(CCCOc3cccc4cc(F)ccc34)c3ccc(Cl)c-2c31 (racemic) [Example 16, (rac)-4-chloro-7-{3-[(6-fluoronaphthalen-1-yl)oxy]propyl}-2,3-dimethyl-15-[2-(morpholin-4-yl)ethyl]-2,10,11,12,13,15-hexahydropyrazolo[4′,3′:9,10][1,6]oxazacycloundecino[8,7,6-hi]indole-8-carboxylic Acid]",–,–,7.66,pIC50 (AMO-1 cells; [4]): 7.32
"CCc1c2c(nn1C)C(CCCN1CCOCC1)OCCCCn1c(C(=O)O)c(CCCOc3cccc4cc(F)ccc34)c3ccc(Cl)c-2c31 (racemic) [Example 65, (rac)-4-chloro-3-ethyl-7-{3-[(6-fluoronaphthalen-1-yl)oxy]propyl}-2-methyl-(15-rac)-[3-(morpholin-4-yl)propyl]-2,10,11,12,13,15-hexahydropyrazolo[4′,3′:9,10][1,6]oxazacycloundecino[8,7,6-hi]indole-8-carboxylic Acid]",–,–,7.00,pIC50 (AMO-1 cells; [4]): 7.05
"CCc1c2c(nn1C)C(Cc1ccccc1)OCCCCn1c(C(=O)O)c(CCCOc3cccc4cc(F)ccc34)c3ccc(Cl)c-2c31 (racemic) [Example 92, (rac)-(rac-15)-benzyl-4-chloro-3-ethyl-7-{3-[(6-fluoro-1-naphthyl)oxy]propyl}-2-methyl-2,10,11,12,13,15-hexahydropyrazolo[4′,3′:9,10][1,6]oxazacycloundecino[8,7,6-hi]indole-8-carboxylic Acid]",–,–,5.85,pIC50 (AMO-1 cells; [4]): 5.87
"CCc1c2c(nn1C)C(CCC(C)(C)O)OCCCCn1c(C(=O)O)c(CCCOc3cccc4cc(F)ccc34)c3ccc(Cl)c-2c31 (racemic) [Example 74, (rac)-4-chloro-3-ethyl-7-{3-[(6-fluoronaphthalen-1-yl)oxy]propyl}-(15-rac)-(3-hydroxy-3-methylbutyl)-2-methyl-2,10,11,12,13,15-hexahydropyrazolo[4′,3′:9,10][1,6]oxazacycloundecino[8,7,6-hi]indole-8-carboxylic Acid]",–,–,7.26,pIC50 (AMO-1 cells; [4]): 7.45
"Cc1c2c(nn1C)C(C)OCCCCn1c(C(=O)O)c(CCCOc3cccc4ccccc34)c3cccc-2c31 (single isomer, unassigned; stereoisomer 2) [Example 3, 2,3,15-trimethyl-7-[3-(naphthalen-1-yloxy)propyl]-2,10,11,12,13,15-hexahydropyrazolo[4′,3′:9,10][1,6]oxazacycloundecino[8,7,6-hi]indole-8-carboxylic Acid Trifluoroacetic Acid Salt (Stereoisomer 2)]",–,–,–,pIC50 (SUDHL10 cells; [5]): 4.59
"Cc1c2c(nn1C)C(C)OCCCCn1c(C(=O)O)c(CCCOc3cccc4ccccc34)c3cccc-2c31 (single isomer, unassigned; stereoisomer 1) [Example 2, 2,3,15-trimethyl-7-[3-(naphthalen-1-yloxy)propyl]-2,10,11,12,13,15-hexahydropyrazolo[4′,3′:9,10][1,6]oxazacycloundecino[8,7,6-hi]indole-8-carboxylic Acid Trifluoroacetic Acid Salt (Stereoisomer 1)]",–,–,–,pIC50 (SUDHL10 cells; [5]): 5.60
"Cc1c2c(nn1C)C(C)OCCCCn1c(C(=O)O)c(CCCOc3cccc4ccccc34)c3cccc-2c31 (racemic) [Example 1, (rac)-2,3,15-trimethyl-7-[3-(naphthalen-1-yloxy)propyl]-2,10,11,12,13,15-hexahydropyrazolo[4′,3′:9,10][1,6]oxazacycloundecino[8,7,6-hi]indole-8-carboxylic Acid (Mixture of Stereoisomers)]",–,–,5.18,–
"Cc1c2c(nn1C)C(CCN1CCOCC1)OCCCCn1c(C(=O)O)c(CCCOc3cccc4ccccc34)c3ccc(F)c-2c31 (racemic) [Example 7, (rac)-4-fluoro-2,3-dimethyl-15-[2-(morpholin-4-yl)ethyl]-7-[3-(naphthalen-1-yloxy)propyl]-2,10,11,12,13,15-hexahydropyrazolo[4′,3′:9,10][1,6]oxazacycloundecino[8,7,6-hi]indole-8-carboxylic Acid]",–,–,6.42,–
"Cc1c2c(nn1C)C(CCN1CCOCC1)OCCCCn1c(C(=O)O)c(CCCOc3cccc4ccccc34)c3ccc(F)c-2c31 (single isomer, unassigned; enantiomer 2) [Example 9, 4-fluoro-2,3-dimethyl-15-[2-(morpholin-4-yl)ethyl]-7-{3-[(naphthalen-1-yl)oxy]propyl}-2,10,11,12,13,15-hexahydropyrazolo[4′,3′:9,10][1,6]oxazacycloundecino[8,7,6-hi]indole-8-carboxylic Acid—N-ethylethanamine Salt (Enantiomer 2)]",4.80,–,–,–
"Cc1c2c(nn1C)C(CCN1CCOCC1)OCCCCn1c(C(=O)O)c(CCCOc3cccc4ccccc34)c3cccc-2c31 (single isomer, unassigned; stereoisomer 2) [Example 6, 2,3-dimethyl-15-[2-(morpholin-4-yl)ethyl]-7-[3-(naphthalen-1-yloxy)propyl]-2,10,11,12,13,15-hexahydropyrazolo[4′,3′:9,10][1,6]oxazacycloundecino[8,7,6-hi]indole-8-carboxylic Acid (Stereoisomer 2)]",4.54,–,–,–
